Patent US20220024882A1, “NOVEL TUMOR ANTIGEN BINDING AGENTS AND USES THEREOF” (ITM Isotopen Technologien München AG, priority 2018, published 2022)
Several values for one entry are separate records, joined by “and”; a condition that tells them apart may be missing. Equal entries are not always repeated.

Key:
[1] = Whole-body activity measurements, tumor-bearing mice; type: in vivo, athymic nude Balb/c mice; conditions: 4 h p.i., 30 MBq, 1 nmol i.v., activity right after injection = 100%
Description: (§1) In vivo experiments were approved by the local veterinarian department and conducted in accordance with the Swiss law of animal protection. Mice were obtained from Charles River Laboratories, Sulzfeld, Germany, at the age of 5-6 weeks. Female, athymic nude Balb/c mice were subcutaneously inoculated with PSMA-positive PC-3 PIP cells (6×10^6 cells in 100 μL Hank's balanced salt solution (HBSS) with Ca^2+/Mg^2+) on the right shoulder and with PSMA-negative PC-3 flu cells (5×10^6 cells in 100 μL HBSS Ca^2+/Mg^2+) on the left shoulder. Two weeks later, the tumors reached a size of about 80-300 mm^3 suitable for the performance of the imaging studies.
The single radioligands (specific activity: 30 MBq/nmol) were diluted in 0.9% NaCl containing 0.05% bovine serum albumin (BSA) and i.v. injected into PC-3 PIP/flu tumor bearing mice (30 MBq, 1 nmol, 100 μL) for SPECT/CT imaging purposes. The mice were measured in a dose calibrator at 4 h, 24 h, 48 h and 72 h p.i., respectively.

[2] = tested on: PC-3 PIP/flu tumor-bearing mice; assay: Biodistribution study in PC-3 PIP/flu tumor-bearing mice; type: in vivo, athymic nude Balb/c mice; conditions: for Kidneys / Tumor-to-kidney / Blood / Bone / Heart / Intestines / Liver / Lung / Muscle / Salivary glands / Spleen / Stomach / Tumor-to-blood / Tumor-to-liver: PC-3 PIP/flu tumor-bearing mice; for PC-3 flu Tumor: PSMA-negative tumor xenograft; for PC-3 flu Tumor / PC-3 PIP Tumor: mice; for PC-3 PIP Tumor: PSMA-positive tumor xenograft
Description: as §1, with “biodistribution” for “imaging”
Biodistribution studies were performed 12-15 days after PC-3 PIP/flu tumor cell inoculation. […] The radioligands were injected in a lateral tail vein in a volume of 100-200 μL. Mice were euthanized at different time points after injection (p.i.) of the radioligands. Selected tissues and organs were collected, weighed and measured using a γ-counter. The results were decay-corrected and listed as a percentage of the injected activity per gram of tissue mass (% IA/g) (Table 3 and 4).
Mice were obtained from Charles River Laboratories, Sulzfeld, Germany, at the age of 5-6 weeks. Female, athymic nude BALB/c mice were subcutaneously inoculated with PSMA-positive PC-3 PIP cells (6×10^6 cells in 100 μL Hank's balanced salt solution (HBSS)) on the right shoulder and with PSMA-negative PC-3 flu cells (5×10^6 cells in 100 μL HBSS) on the left shoulder. Two weeks later, the tumors reached a size of about 80-300 mm^3 suitable for the performance of the biodistribution and imaging studies.
Biodistribution studies were performed 12-15 days after PC-3 PIP/flu tumor cell inoculation. ^177Lu-Ibu-sPSMA was diluted in 0.9% NaCl containing 0.05% bovine serum albumin (BSA) to prevent adhesion to the vial and syringe material. The radioligand was injected in a lateral tail vein in a volume of 100 μL. Mice were euthanized at different time points after injection (p.i.) of the radioligand. Selected tissues and organs were collected, weighed and measured using a γ-counter. The results were decay-corrected and listed as a percentage of the injected activity per gram of tissue mass (% IA/g) (Table 6, FIG. 18).

Row | SMILES | whole-body retention of radioactivity [1] [%] | Blood ([2]; 4 h p.i.) [% IA/g] | Bone ([2]; 4 h p.i.) [% IA/g] | Heart ([2]; 4 h p.i.) [% IA/g] | Intestines ([2]; 4 h p.i.) [% IA/g] | Kidneys ([2]; 4 h p.i.) [% IA/g] | Liver ([2]; 4 h p.i.) [% IA/g] | Lung ([2]; 4 h p.i.) [% IA/g] | Muscle ([2]; 4 h p.i.) [% IA/g] | Salivary glands ([2]; 4 h p.i.) [% IA/g] | Spleen ([2]; 4 h p.i.) [% IA/g] | Stomach ([2]; 4 h p.i.) [% IA/g] | Tumor-to-blood ([2]; 4 h p.i.) | Tumor-to-kidney ([2]; 4 h p.i.) | Tumor-to-liver ([2]; 4 h p.i.) | PC-3 flu Tumor ([2]; 4 h p.i.) [% IA/g] | PC-3 PIP Tumor ([2]; 4 h p.i.) [% IA/g] | Bone ([2]; 24 h p.i.) [% IA/g] | Heart ([2]; 24 h p.i.) [% IA/g] | Intestines ([2]; 24 h p.i.) [% IA/g] | also measured
1 | CC(C)Cc1ccc(C(C)C(=O)NC(CC(=O)O)C(=O)NCCCCC(NC(=O)CN2CCN(CC(=O)O)CCN(CC(=O)O)CCN(CC(=O)O)CC2)C(=O)NCC2CCC(C(=O)NC(Cc3ccc4ccccc4c3)C(=O)NCCCCC(NC(=O)NC(CCC(=O)O)C(=O)O)C(=O)O)CC2)cc1 (stereo not shown) [^177Lu-Ibu-Dα-PSMA, metal not drawn] | 29 | 2.33 ± 0.71 | 0.37 ± 0.10 | 0.89 ± 0.27 | 0.49 ± 0.08 | 27.2 ± 3.31 | 0.84 ± 0.22 | 1.54 ± 0.35 | 0.35 ± 0.08 | 0.74 ± 0.20 | 0.90 ± 0.04 | 0.25 ± 0.08 | 22.5 ± 5.28 | 1.82 ± 0.03 | 60.8 ± 11.1 | 1.00 ± 0.21 | 49.4 ± 5.33 | 0.11 ± 0.02 | 0.18 ± 0.03 | 0.11 ± 0.02 | Kidneys ([2]; 1 h p.i.): 73±2 % IA/g; Tumor-to-kidney ([2]; 1 h p.i.): 0.59±0.08; Blood ([2]; 24 h p.i.): 0.33 ± 0.06 % IA/g; Kidneys ([2]; 24 h p.i.): 18.2 ± 3.06 % IA/g; Liver ([2]; 24 h p.i.): 0.37 ± 0.04 % IA/g; Lung ([2]; 24 h p.i.): 0.39 ± 0.09 % IA/g; Muscle ([2]; 24 h p.i.): 0.07 ± 0.02 % IA/g; Salivary glands ([2]; 24 h p.i.): 0.21 ± 0.04 % IA/g; Spleen ([2]; 24 h p.i.): 0.46 ± 0.10 % IA/g; Stomach ([2]; 24 h p.i.): 0.12 ± 0.03 % IA/g; Tumor-to-blood ([2]; 24 h p.i.): 198 ± 32.6; Tumor-to-kidney ([2]; 24 h p.i.): 3.56 ± 0.34; Tumor-to-liver ([2]; 24 h p.i.): 196 and 196 ± 44.4; PC-3 flu Tumor ([2]; 24 h p.i.): 0.38 ± 0.05 % IA/g; PC-3 PIP Tumor ([2]; 24 h p.i.): 84.2±14.9 % IA/g
2 | CC(C)Cc1ccc(C(C)C(=O)NC(CC(=O)NCCCCC(NC(=O)CN2CCN(CC(=O)O)CCN(CC(=O)O)CCN(CC(=O)O)CC2)C(=O)NCC2CCC(C(=O)NC(Cc3ccc4ccccc4c3)C(=O)NCCCCC(NC(=O)NC(CCC(=O)O)C(=O)O)C(=O)O)CC2)C(=O)O)cc1 (stereo not shown) [^177Lu-Ibu-Dβ-PSMA, metal not drawn] | 49 | 13.2±1.15 | 1.87 ± 0.16 | 4.19 ± 0.23 | 1.81 ± 0.23 | 32.2 ± 2.46 | 3.87 ± 0.16 | 8.55 ± 3.30 | 1.79 ± 0.48 | 3.33 ± 0.15 | 2.60 ± 0.23 | 1.51 ± 0.18 | 5.03±0.73 | 2.06 ± 0.23 | 17.0 ± 1.73 | 3.86 ± 0.18 | 65.7 ± 7.31 | 0.26 ± 0.03 | 0.57 ± 0.02 | 0.40 ± 0.07 | Blood ([2]; 24 h p.i.): 1.28 ± 0.05 % IA/g; Kidneys ([2]; 24 h p.i.): 21.3 ± 1.53 % IA/g; Liver ([2]; 24 h p.i.): 0.69 ± 0.07 % IA/g; Lung ([2]; 24 h p.i.): 1.17 ± 0.06 % IA/g; Muscle ([2]; 24 h p.i.): 0.22 ± 0.04 % IA/g; Salivary glands ([2]; 24 h p.i.): 0.61 ± 0.02 % IA/g; Spleen ([2]; 24 h p.i.): 1.03 ± 0.08 % IA/g; Stomach ([2]; 24 h p.i.): 0.48 ± 0.13 % IA/g; Tumor-to-blood ([2]; 24 h p.i.): 83.6 ± 9.06; Tumor-to-kidney ([2]; 24 h p.i.): 4.90 ± 0.29; Tumor-to-liver ([2]; 24 h p.i.): 151 ± 3.37; PC-3 flu Tumor ([2]; 24 h p.i.): 0.79 ± 0.12 % IA/g; PC-3 PIP Tumor ([2]; 24 h p.i.): 106±9.70 % IA/g
3 | CC(C)Cc1ccc(C(C)C(=O)NC(CC(N)=O)C(=O)NCCCCC(NC(=O)CN2CCN(CC(=O)O)CCN(CC(=O)O)CCN(CC(=O)O)CC2)C(=O)NCC2CCC(C(=O)NC(Cc3ccc4ccccc4c3)C(=O)NCCCCC(NC(=O)NC(CCC(=O)O)C(=O)O)C(=O)O)CC2)cc1 (stereo not shown) [^177Lu-Ibu-N-PSMA, metal not drawn] | 12 | 3.58 ± 1.39 | 0.56 ± 0.22 | 1.23 ± 0.61 | 0.50 ± 0.18 | 27.1 ± 8.37 | 1.27 ± 0.55 | 2.20 ± 0.95 | 0.47 ± 0.19 | 0.94 ± 0.38 | 1.40 ± 0.75 | 0.51 ± 0.23 | 20.1 ± 6.22 | 2.48 ± 0.11 | 18.2 ± 2.70 | 1.15 ± 0.52 | 65.4 ± 15.6 | 0.08 ± 0.02 | 0.12 ± 0.03 | 0.09 ± 0.02 | Kidneys ([2]; 24 h p.i.): 8.02±1.13 % IA/g; Liver ([2]; 24 h p.i.): 0.32 ± 0.05 % IA/g; Lung ([2]; 24 h p.i.): 0.24 ± 0.06 % IA/g; Muscle ([2]; 24 h p.i.): 0.06 ± 0.02 % IA/g; Salivary glands ([2]; 24 h p.i.): 0.57 ± 0.35 % IA/g; Spleen ([2]; 24 h p.i.): 0.24 ± 0.06 % IA/g; Stomach ([2]; 24 h p.i.): 0.17 ± 0.09 % IA/g; Tumor-to-blood ([2]; 24 h p.i.): 227 ± 41.7; Tumor-to-kidney ([2]; 24 h p.i.): 6.90 ± 2.43; Tumor-to-liver ([2]; 24 h p.i.): 182 and 182 ± 52.6; PC-3 flu Tumor ([2]; 24 h p.i.): 0.23 ± 0.01 % IA/g; PC-3 PIP Tumor ([2]; 24 h p.i.): 58.0 ± 21.0 % IA/g
4 | CC(C)Cc1ccc(C(C)C(=O)NCCCCC(NC(=O)CN2CCN(CC(=O)O)CCN(CC(=O)O)CCN(CC(=O)O)CC2)C(=O)NCC2CCC(C(=O)NC(Cc3ccc4ccccc4c3)C(=O)NCCCCC(NC(=O)NC(CCC(=O)O)C(=O)O)C(=O)O)CC2)cc1 (stereo not shown) [^177Lu-Ibu-PSMA, metal not drawn] | 33 | 5.96 ± 1.53 | 1.01 ± 0.18 | 2.28 ± 0.68 | 1.00 ± 0.27 | 32.5 ± 0.86 | 2.77 ± 0.43 | 3.72 ± 0.73 | 0.97 ± 0.37 | 1.66 ± 0.36 | 1.76 ± 0.23 | 0.79 ± 0.26 | 14.1 ± 2.25 | 2.60 ± 0.08 | 29.7 ± 3.11 | 2.19 ± 0.52 | 81.3±6.28 | 0.20 ± 0.04 | 0.33 ± 0.06 | 0.23 ± 0.04 | Blood ([2]; 24 h p.i.): 0.58 ± 0.09 % IA/g; Kidneys ([2]; 24 h p.i.): 16.5 ± 1.48 % IA/g; Liver ([2]; 24 h p.i.): 0.91 ± 0.12 % IA/g; Lung ([2]; 24 h p.i.): 0.62 ± 0.12 % IA/g; Muscle ([2]; 24 h p.i.): 0.12 ± 0.04 % IA/g; Salivary glands ([2]; 24 h p.i.): 0.34 ± 0.07 % IA/g; Spleen ([2]; 24 h p.i.): 0.68 ± 0.15 % IA/g; Stomach ([2]; 24 h p.i.): 0.23 ± 0.02 % IA/g; Tumor-to-blood ([2]; 24 h p.i.): 149 ± 16.7; Tumor-to-kidney ([2]; 24 h p.i.): 5.36 ± 0.73; Tumor-to-liver ([2]; 24 h p.i.): 95.4 ± 10.6; PC-3 flu Tumor ([2]; 24 h p.i.): 0.58 ± 0.19 % IA/g; PC-3 PIP Tumor ([2]; 24 h p.i.): 86.8±18.0 % IA/g and 86.9 ± 18.0 % IA/g
